According to the supplement of paper PMC8967900:

Legend:
Experiment in all cases: selective drug sensitivity score (sDSS, relative to normal bone marrow) (sDSS (score)); higher = more potent and effective on the cell line relative to normal bone marrow cells
Conditions in all cases: 72 h
LC4-1 = tested on: LC4-1
MN-60 = tested on: MN-60
DND-41 = tested on: DND-41
NALM-6 = tested on: NALM-6
SEM cells = tested on: SEM cells
HPB-ALL = tested on: HPB-ALL
MHH-CALL-4 = tested on: MHH-CALL-4
SUP-B15 = tested on: SUP-B15
COG-LL-332h = tested on: COG-LL-332h
TANOUE = tested on: TANOUE
CCRF-HSB2 = tested on: CCRF-HSB2
COG-LL-319h = tested on: COG-LL-319h
CCRF-CEM = tested on: CCRF-CEM
KASUMI-10 = tested on: KASUMI-10
MOLT-14 = tested on: MOLT-14
NALL-1 = tested on: NALL-1
NALM-16 = tested on: NALM-16
REH = tested on: REH
KASUMI-2 = tested on: KASUMI-2
MOLT-16 = tested on: MOLT-16
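Also: ALL cell lines in 384-well plates, five doses spanning 10,000-fold, each plate scaled between vehicle and 100 µmol/L benzalkonium chloride controls, sDSS an adapted area-under-curve metric.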

SMILES | selective drug sensitivity score (LC4-1) | selective drug sensitivity score (MN-60) | selective drug sensitivity score (DND-41) | selective drug sensitivity score (NALM-6) | selective drug sensitivity score (SEM cells) | selective drug sensitivity score (HPB-ALL) | selective drug sensitivity score (MHH-CALL-4) | selective drug sensitivity score (SUP-B15) | selective drug sensitivity score (COG-LL-332h) | selective drug sensitivity score (TANOUE) | selective drug sensitivity score (CCRF-HSB2) | selective drug sensitivity score (COG-LL-319h) | selective drug sensitivity score (CCRF-CEM) | selective drug sensitivity score (KASUMI-10) | selective drug sensitivity score (MOLT-14) | selective drug sensitivity score (NALL-1) | selective drug sensitivity score (NALM-16) | selective drug sensitivity score (REH) | selective drug sensitivity score (KASUMI-2) | selective drug sensitivity score (MOLT-16)
C[C@H]1C[C@@H](n2c(Nc3ccc(OC(F)(F)F)cc3)nc3cc(CCC(=O)O)ccc32)CC(C)(C)C1 (top concentration 10000 nM) | 0.76 | -0.04 | -0.14 | 0.16 | 0.16 | 5.56 | -0.14 | 2.16 | 1.36 | -0.14 | 2.56 | -0.14 | 1.56 | -0.14 | 2.96 | -0.14 | -0.14 | 0.36 | -0.14 | 5.66
O=C1CCC(N2C(=O)c3ccccc3C2=O)C(=O)N1 (stereo not given) [Thalidomide] (top concentration 10000 nM) | -0.14 | -0.14 | -0.14 | -0.14 | -0.14 | -0.14 | -0.14 | -0.14 | -0.14 | -0.14 | -0.14 | -0.14 | -0.14 | -0.14 | -0.14 | -0.14 | -0.14 | -0.04 | -0.14 | -0.14
O=C(O)CC[C@H]1CC[C@@](c2cc(F)ccc2F)(S(=O)(=O)c2ccc(Cl)cc2)CC1 [MK-0752] (top concentration 1000 nM) | 0 | 0 | 0.4 | 0 | 0 | 0 | 0 | 0 | 0 | 0 | 1 | 0 | 0 | 0 | 0 | 8.6 | 0 | 0 | 0 | 0
CC(O)(CS(=O)(=O)c1ccc(F)cc1)C(=O)Nc1ccc(C#N)c(C(F)(F)F)c1 (stereo not given) [Bicalutamide] (top concentration 10000 nM) | -1.68 | 1.42 | -1.68 | 2.02 | -1.68 | -1.68 | -1.68 | 4.62 | 0.72 | -1.28 | -1.28 | 3.72 | -0.38 | -1.68 | 2.52 | -1.68 | 0.62 | -1.68 | -1.68 | 6.92
O=C(Nc1cnn2ccc(N3CCC[C@@H]3c3cc(F)ccc3F)nc12)N1CC[C@H](O)C1 [Larotrectinib] (top concentration 1000 nM) | 1.28 | -0.62 | -0.62 | 0.48 | -0.62 | 4.18 | -0.62 | 0.08 | -0.62 | -0.62 | -0.62 | 3.78 | -0.62 | -0.62 | -0.62 | -0.62 | -0.62 | -0.62 | -0.62 | -0.62
CC(=O)O[C@@]12CO[C@@H]1C[C@H](O)[C@@]1(C)C(=O)[C@H](O)C3=C(C)[C@@H](OC(=O)[C@H](O)[C@@H](NC(=O)OC(C)(C)C)c4ccccc4)C[C@@](O)([C@@H](OC(=O)c4ccccc4)[C@H]21)C3(C)C [Docetaxel] (top concentration 1000 nM) | 22.9 | -1 | 3.3 | 14.1 | 19.5 | 12.5 | 8.2 | 21.7 | 22.2 | -11.8 | 19.3 | 21.2 | 19.8 | 14.6 | 19.5 | 15.9 | 12.3 | 21.1 | 16.4 | 23.5
CONC(=O)c1ccccc1Nc1cc(Nc2cc(C)nn2C(C)C)ncc1Cl (top concentration 1000 nM) | 3.36 | -0.94 | 0.56 | 0.56 | -0.94 | -0.94 | -0.94 | -0.94 | -0.94 | 0.36 | -0.94 | 9.66 | -0.94 | -0.94 | -0.94 | -0.94 | -0.94 | -0.94 | -0.94 | -0.94
CC[C@@H]1C(=O)OC[C@@H]1Cc1cncn1C [Pilocarpine] (top concentration 40000 nM) | -1.56 | -1.56 | 4.34 | -1.56 | -1.56 | 7.34 | -1.56 | -1.56 | -1.56 | -0.36 | -1.56 | -1.56 | -1.56 | -1.56 | -0.36 | 7.44 | -1.56 | -1.56 | -1.56 | 1.94
Clc1ccccc1C(c1ccccc1)(c1ccccc1)n1cccn1 [TRAM-34] (top concentration 1000 nM) | -0.08 | -0.08 | -0.08 | -0.08 | -0.08 | -0.08 | -0.08 | -0.08 | -0.08 | -0.08 | -0.08 | -0.08 | -0.08 | -0.08 | -0.08 | -0.08 | -0.08 | 0.22 | -0.08 | -0.08
